Laboratory results: patent publication US8158589B2, “Peptides with the capacity to bind to transforming growth factor β1 (TGF-β1)” (Proyecto Biomedicine Cima, S.L., priority 2003, dated 2012)
Ends that are not written are not given here.

Assays:
TGF-β1 [1] = target: T1, TGF-β1 (Homo sapiens, UniProt P01137); type: cell-based; design: purchased Roche; host or cells: added to Mv-1-Lu (CCL-64) mink lung epithelial cells
From the text: The cell line Mv-1-Lu (CCL-64, […], Virginia, USA) derives from mink pulmonary epithelium, grows as a monolayer, and responds to the presence of TGF-β1 by decreasing its proliferation (FIG. 5). Thus, the peptide-mediated inhibition of this cytokine is able to restore cell growth and reflects the capacity of the different peptides to inhibit the biological activity of TGF-β1 in vitro. The peptides tested were obtained by peptide synthesis, in accordance to conventional procedures (Merrifield R B. J Am Chem Soc 1963; 85:2149-2154; Atherton E et al. J Chem Soc Perkin Trans 1981; 1:538-546).
The Mv-1-Lu cells are cultured to confluence in complete medium [RPMI-1640 supplemented with L-glutamine, sodium pyruvate, antibiotics and 10% fetal bovine serum (FBS)] at 37° C. and in 5% CO2 in 162 cm^2 bottles (Costar Corporation, CA, USA). Following trypsinization, the cells are cultured in 200 μl of complete medium in 96-well plates at an initial density of 5,000 cells/well at 37° C. and in 5% CO2 during 6 hours to ensure adhesion. Then, different concentrations of the peptides to be tested are added, starting from 200 μg/ml, and following 200 pg/ml of TGF-β1 (Roche) are added. After 12 hours of incubation 1 μCi of methyl-3H-thymidine (Amersham Life Science, Buckinghamshire, United Kingdom) is added per well in 25 μl of clean medium (RPMI-1640). The plate is incubated for 12 more hours under the same conditions. Finally, the cells are harvested (Filtermate 196 Harvester, Packard), transferring the tritiated thymidine, incorporated in the course of DNA synthesis, to plates (UniFilter-96 GF/C®, Perkin Elmer). Following the addition of scintillation fluid, the radioactivity was quantified using a scintillation counter (Top Count, Microplate Scintillation Counter, Packard). As positive and negative control, use was made of the incorporation of tritiated thymidine in the absence and presence of TGF-β1, respectively. The inhibition of TGF-β1 activity in this test was calculated based on the following formula: […]
The negative control represents the incorporation of tritiated thymidine in the presence of TGF-β1 but in the absence of peptide, whereas the positive control refers to the incorporation of tritiated thymidine in the absence of TGF-β1 and peptide. Thus, according to the capacity of the peptides to revert the cytokine repressor effect on Mv-1-Lu cell line proliferation, percentage of TGF-β1 biological activity inhibition by the peptides can be measured (Table 2).
Comparisons have been made of the activity of truncated peptides (derived from peptide sequence SEQ ID NO: 17) versus the complete sequence, in terms of the capacity to revert the suppressor effect of TGF-β1 upon proliferation of the Mv-1-Lu cell line. To this effect, and to determine the minimum sequence of peptide SEQ ID NO: 17 capable of inhibiting the biological activity of TGF-β1 in vitro, truncated versions of this peptide were synthesized, with truncation at the N-terminal end, C-terminal end or in both ends of the molecule. The peptides tested were obtained by peptide synthesis following conventional procedures (Merrifield R B. J Am Chem Soc 1963; 85:2149-2154; Atherton E et al. J Chem Soc Perkin Trans 1981; 1:538-546). Following the same methodology described in Example 2, the activity of truncated peptides versus the complete sequence of the peptide SEQ ID NO: 17 was quantified, in terms of a proliferation assay of the Mv-1-Lu cell line.

TGF-β1 [2] = target: T2, TGF-β1 (Mus musculus, UniProt P04202); test: Model of acute liver damage induced by CCl4, type I collagen mRNA by real time PCR; type: in vivo, mice; design: key to % Inhibition of type I collagen mRNA induction (in vivo TGF-β1 biological activity): Neg: negative; conditions: for % Inhibition of type I collagen mRNA induction (in vivo TGF-β1 biological activity): Balb/C mice, oral CCl4, 50 μg of peptide every 24 h, sacrifice after 72 hours; for inhibition of the biological activity of TGF-β1 in vivo (in words): acute liver damage, type I collagen mRNA
T2 construct: from tissue; host or cells: liver of Balb/C mice (CCl4 model); lung of C57BL/6 mice (bleomycin model)
T2 sequence (P04202 279-390 limits assumed): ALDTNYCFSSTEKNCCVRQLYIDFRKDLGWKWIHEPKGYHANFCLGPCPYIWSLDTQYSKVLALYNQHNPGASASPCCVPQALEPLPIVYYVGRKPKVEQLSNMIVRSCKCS
Experimental: Acute liver damage generates a cascade of effects and physiological responses, including elevations in the concentrations of TGF-β1. This elevation is responsible for the expression of the type I collagen gene, among others. In this model of acute liver damage, female Balb/C mice weighing 25 to 30 g, were orally administered a dose of 2 μl of CCl4 (per gram of body weight) dissolved in an equivalent volume of corn oil (volumetric ratio of 1:1). The control group received an equivalent volume of corn oil only, and the treated groups received (following the single oral administration of CCl4 in corn oil) 50 μg of peptide in 500 μl of 1% physiological saline solution in DMSO (dimethyl sulfoxide) every 24 h. After 72 hours all animals were sacrificed, and the liver samples were processed. To evaluate mRNA expression, liver tissue was frozen in liquid nitrogen and stored at −80° C. until further use. Other liver tissue samples were stored in OCT® or Tissue-Tek® (Sakura Finetek B.V.) and processed in the same way as the samples used for mRNA studies. Other liver samples were fixed in 10% buffered formalin solution, embedded in paraffin and processed for their histological evaluation. The amount of mRNA encoding type I collagen was quantified in all groups using a quantitative polymerase chain reaction (PCR) technique. […] The capacity of the testing peptides to block the acute damage, as assessed by measuring the levels of induced type I collagen mRNA was quantified by real time PCR. […] The peptides tested were obtained by conventional solid peptide synthesis procedures (Merrifield R B. J Am Chem Soc 1963; 85:2149-2154; Atherton E et al. J Chem Soc Perkin Trans 1981; 1:538-546).

TGF-β1 [3] = target: T1, TGF-β1; test: Biopanning of phage-displayed 15-aa peptide library on biotinylated TGF-β1, number of colonies per sequence; type: binding; design: purchased Roche; host or cells: added to Mv-1-Lu (CCL-64) mink lung epithelial cells; conditions: clones carrying the sequence among 108 colonies after the last biopanning cycle; approximate indication of affinity for TGF-β1
From the text: These libraries comprise a plurality of filamentous bacteriophages (M13), each one containing a peptide genetically fused to a protein of the virus envelope—in this case bound to the N-terminal end of envelope protein pIII (FIG. 1). […] In the phage libraries, the sequence encoding the peptide originates from a sequence degenerated in each one of the 15 positions with the 20 natural amino acids, thus allowing the presentation of 1.1×10^12 possible sequences of 15 amino acids in different phages. The physical ratio, 1:1, between the peptide sequence and the DNA encoding it within the bacteriophage allows the selection (from a broad range of variants) of those sequences that specifically bind to TGF-β1. This process is carried out via an in vitro selection protocol known as “biopanning”.
This technique involves incubating a set of phages representative (to practical effects) of all the 15-aa variants, in a plate blocked with streptavidin (10 μg/ml in 0.1 M NaHCO3, during 2 h at room temperature) to which biotinylated TGF-β1 is added. […] TGF-β1 contacts the peptides carried by the phages at a concentration of […]. After about 12 hours incubation, unbound phages are eliminated by 5 washings with PBS/Tween (phosphate buffered saline/polyoxyalkylene derivatives of sorbitan fatty acid esters). […] The eluted phages are then amplified by infection in a bacterial strain (E. coli). The process is repeated three cycles so that an enrichment in the content of phages which specifically bind, and with high affinity, to TGF-β1 is achieved (FIG. 3). […] Thus, the phages selected in each cycle show more and more affinity for TGF-β1. At the end of the process, phages which have been selected for their affinity for TGF-β1, are sequenced by using primers, after isolation by tetracycline resistance of the genetically modified phages after infecting E. coli cells. […] The number of times which a sequence is repeated, corresponding to a 15 amino acids peptide carried by each clone, from the total of sequenced colonies is an indication of the degree of relative affinity of said 15 amino acids sequence for TGF-β1.
The selection of clones, obtained from the “biopanning”, was carried out by selection of the bacterial colonies infected with the phages in the presence of a bacterial antibiotic; the bacteria resistance is acquired by a tetracycline resistance gene encoded by the phage genome. Thus, only those colonies infected with bacteriophages are able to grow. This means that each colony contains the genome of only one phage coding for only one peptide presented in its surface.
A total number of 108 colonies of phage-infected bacteria were obtained from the last selection cycle of “biopanning”. The sequence of the regions coding for the peptides present in the pIII protein was carried out using primers identified with SEQ ID NO: 23. This table also reflects the number of colonies (clones) carrying said sequences.
The number of clones (colonies) of each sequence gives an approximate indication of the degree of affinity of the peptide for TGF-β1, that is, the more colonies the more binding affinity.

T1 sequence (P01137 279-390 limits assumed, species assumed): as the sequence (P04202 279-390 limits assumed) above, with S75A counted along it

Sequence | % Inhibition of in vitro TGF-β1 biological activity (TGF-β1 [1]) [%] | % Inhibition of type I collagen mRNA induction (in vivo TGF-β1 biological activity) (TGF-β1 [2]) | No. colonies (TGF-β1 [3]) | also measured
IWFIPRSSWYERA [SEQ ID NO: 26, IWFIPRSSWYERA] | 4.5 ± 1.8 | – | – | –
FIPRSSWYERA [SEQ ID NO: 30, FIPRSSWYERA] | −0.3 ± 3.0 | – | – | –
WFIPRSSWYERA [SEQ ID NO: 29, WFIPRSSWYERA] | 2.7 ± 1.8 | – | – | –
GWITFHRRHHDRVLS [SEQ ID NO: 15] | – | 14.26% | 1 | –
WHKYFLRRPLSVGLG [SEQ ID NO: 12] | – | Neg | 1 | –
RIWFIPRSSWYER [SEQ ID NO: 25, RIWFIPRSSWYER] | 6.2 ± 1.5 | – | – | –
IWFIPRSSWYE [SEQ ID NO: 27, IWFIPRSSWYE] | 1.4 ± 2.5 | – | – | –
GWHSLLHSRYHRLAA [SEQ ID NO: 9] | – | 26.59% | 1 | –
RRFHFHSRMVAVDNS [SEQ ID NO: 20] | – | 1.41% | 1 | –
KRIWFIPRS [SEQ ID NO: 36, KRIWFIPRS] | 6.2 ± 2.5 | – | – | –
PRSSWYERA [SEQ ID NO: 32, PRSSWYERA] | 3.8 ± 1.6 | – | – | –
RRWVRYPVHLHSPIV [SEQ ID NO: 5] | – | Neg | 1 | –
KRIWFIPRSS [SEQ ID NO: 35, KRIWFIPRSS] | 6.0 ± 0.4 | – | – | –
HVRLHHYLRHRSLPN [SEQ ID NO: 21] | – | Neg | 1 | –
WHWRHRIPLQLAAGR [SEQ ID NO: 8] | – | Neg | 2 | –
RLHGHRSHRFTHVAQ [SEQ ID NO: 16] | – | Neg | 1 | –
HRISHFAHRYLARLH [SEQ ID NO: 7] | – | Neg | 2 | –
WFIPRSSWY [SEQ ID NO: 28, WFIPRSSWY] | 3.1 ± 0.9 | – | – | –
VPMALNHGVYVMVSS [SEQ ID NO: 22] | – | Neg | 1 | –
KRIWFIPRSSWYER [SEQ ID NO: 33, KRIWFIPRSSWYER] | 31.4 ± 7.0 | – | – | inhibition of the biological activity of TGF-β1 in vitro (in words) (TGF-β1 [1]; Mv-1-Lu proliferation): inhibitory activity
FVWVRFHRLPRQIYT [SEQ ID NO: 10] | – | Neg | 1 | –
DRRIFWWSLRSAPGA [SEQ ID NO: 1] | – | 0.69% | 6 | –
RHLSHFKWLRSHGLD [SEQ ID NO: 19] | – | 12.12% | 1 | –
IPRSSWYERA [SEQ ID NO: 31, IPRSSWYERA] | 3.4 ± 1.4 | – | – | –
KRIWFIPRSSWY [SEQ ID NO: 34, KRIWFIPRSSWY] | 34.4 ± 7.9 | – | – | inhibition of the biological activity of TGF-β1 in vivo (in words) (TGF-β1 [2]): capable of inhibiting the expression of collagen type I mRNA
DRRIFWWSNRSAPGA [SEQ ID NO: 2] | – | 36.6 ± 30.7% | 1 | inhibition of the biological activity of TGF-β1 in vivo (in words) (TGF-β1 [2]): only inhibitory activity
RIWFIPRSSWYERA [SEQ ID NO: 24, RIWFIPRSSWYERA] | 9.4 ± 0.4 | – | – | –
